Experimental data taken from patent US20170050957A1, “4-AMINO-6-(HETEROCYCLIC)PICOLINATES AND 6-AMINO-2-(HETEROCYCLIC)PYRIMIDINE-4-CARBOXYLATES AND THEIR USE AS HERBICIDES” (Dow AgroSciences LLC, priority 2013, published 2017).
Read-outs that look alike come from different tables or passages of the source.

Columns and labels:
[1] = test system: Key Broadleaf Weed and Crop Species; assay: Post-emergent Test II herbicidal activity (Table 15); format: in vivo; conditions: post-emergence, 336 h, 14 d; for pest or weed control at 35 g/ha: 35 g ai/ha; for pest or weed control at 70 g/ha: 70 g ai/ha; for pest or weed control at 140 g/ha: 140 g ai/ha
Method in brief: (§1)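 Post-emergence spray; seedlings 7-21 d old, 1st-2nd true leaf; 187 L/ha; serial rates 1×-1/16×; solvent blank controls; subirrigated; visual % injury at 14 d.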

[2] = test system: Key Grass and Sedge Weeds as well as Grass Crops; assay: Post-emergent Test II herbicidal activity (Table 16); format: in vivo; conditions: post-emergence, 336 h, 14 days after application; for pest or weed control at 35 g/ha: 35 g ai/ha; for pest or weed control at 70 g/ha: 70 g ai/ha; for pest or weed control at 140 g/ha: 140 g ai/ha
Method in brief: as §1

[3] = Abutilon theophrasti, velvetleaf (Abutilon theophrasti), read-out: Visual Growth Reduction (%) 14 Days After Application, ABUTH
[4] = Amaranthus retroflexus, redroot pigweed (Amaranthus retroflexus), read-out: Visual Growth Reduction (%) 14 Days After Application, AMARE
[5] = Brassica napus, oilseed rape, canola (Brassica napus), read-out: Visual Growth Reduction (%) 14 Days After Application, BRSNN
[6] = Chenopodium album, lambsquarters (Chenopodium album), read-out: Visual Growth Reduction (%) 14 Days After Application, CHEAL
[7] = Euphorbia heterophylla, wild poinsettia (Euphorbia heterophylla), read-out: Visual Growth Reduction (%) 14 Days After Application, EPHHL
[8] = Helianthus annuus, sunflower (Helianthus annuus), read-out: Visual Growth Reduction (%) 14 Days After Application, HELAN
[9] = Cyperus esculentus, yellow nutsedge (Cyperus esculentus), read-out: Visual Growth Reduction (%) 14 Days After Application CYPES
[10] = Echinochloa crus-galli, barnyardgrass (Echinochloa crus-galli), read-out: Visual Growth Reduction (%) 14 Days After Application ECHCG
[11] = Oryza sativa, rice (Oryza sativa), read-out: Visual Growth Reduction (%) 14 Days After Application ORYSA
[12] = Setaria faberi, giant foxtail (Setaria faberi), read-out: Visual Growth Reduction (%) 14 Days After Application SETFA
[13] = Triticum aestivum, wheat, spring (Triticum aestivum), read-out: Visual Growth Reduction (%) 14 Days After Application TRZAS
[14] = Zea mays, maize, corn (Zea mays), read-out: Visual Growth Reduction (%) 14 Days After Application ZEAMX

Row | Structure (SMILES) | melting point [°C] | pest or weed control at 35 g/ha [1, 3] [%] | pest or weed control at 70 g/ha [1, 3] [%] | pest or weed control at 140 g/ha [1, 3] [%] | pest or weed control at 35 g/ha [1, 4] [%] | pest or weed control at 70 g/ha [1, 4] [%] | pest or weed control at 140 g/ha [1, 4] [%] | pest or weed control at 35 g/ha [1, 5] [%] | pest or weed control at 70 g/ha [1, 5] [%] | pest or weed control at 140 g/ha [1, 5] [%] | pest or weed control at 35 g/ha [1, 6] [%] | pest or weed control at 70 g/ha [1, 6] [%] | pest or weed control at 140 g/ha [1, 6] [%] | pest or weed control at 35 g/ha [1, 7] [%] | pest or weed control at 70 g/ha [1, 7] [%] | pest or weed control at 140 g/ha [1, 7] [%] | pest or weed control at 35 g/ha [1, 8] [%] | pest or weed control at 70 g/ha [1, 8] [%] | pest or weed control at 140 g/ha [1, 8] [%] | pest or weed control at 35 g/ha [2, 9] [%] | further results
1 | COC(=O)c1nc(-c2cccc3sccc23)c(F)c(N)c1Cl [Compound 3.23] | 219 to 221 | 0 to 29 | 0 to 29 | 0 to 29 | 0 to 29 | 0 to 29 | 0 to 29 | 0 to 29 | 0 to 29 | 0 to 29 | 0 to 29 | 45 to 59 | 85 to 94 | 0 to 29 | 0 to 29 | 0 to 29 | 0 to 29 | 0 to 29 | 0 to 29 | 0 to 29 | pest or weed control at 70 g/ha [2, 9]: 0 to 29%; pest or weed control at 140 g/ha [2, 9]: 0 to 29%; pest or weed control at 35 g/ha [2, 10]: 0 to 29%; pest or weed control at 70 g/ha [2, 10]: 0 to 29%; pest or weed control at 140 g/ha [2, 10]: 0 to 29%; pest or weed control at 35 g/ha [2, 11]: 0 to 29%; pest or weed control at 70 g/ha [2, 11]: 0 to 29%; pest or weed control at 140 g/ha [2, 11]: 0 to 29%; pest or weed control at 35 g/ha [2, 12]: 0 to 29%; pest or weed control at 70 g/ha [2, 12]: 0 to 29%; pest or weed control at 140 g/ha [2, 12]: 0 to 29%; pest or weed control at 35 g/ha [2, 13]: 0 to 29%; pest or weed control at 70 g/ha [2, 13]: 0 to 29%; pest or weed control at 140 g/ha [2, 13]: 0 to 29%; pest or weed control at 35 g/ha [2, 14]: 0 to 29%; pest or weed control at 70 g/ha [2, 14]: 0 to 29%; pest or weed control at 140 g/ha [2, 14]: 0 to 29%
2 | COC(=O)c1nc(-c2cccc3ccsc23)c(F)c(N)c1Cl [Compound 3.24] | 121 to 123 | 0 to 29 | 0 to 29 | 0 to 29 | 85 to 94 | 85 to 94 | 95 to 100 | 45 to 59 | 45 to 59 | 45 to 59 | 85 to 94 | 95 to 100 | 95 to 100 | 0 to 29 | 0 to 29 | 0 to 29 | 60 to 74 | 60 to 74 | 85 to 94 | 0 to 29 | pest or weed control at 70 g/ha [2, 9]: 0 to 29%; pest or weed control at 140 g/ha [2, 9]: 0 to 29%; pest or weed control at 35 g/ha [2, 10]: 0 to 29%; pest or weed control at 70 g/ha [2, 10]: 0 to 29%; pest or weed control at 140 g/ha [2, 10]: 0 to 29%; pest or weed control at 35 g/ha [2, 11]: 0 to 29%; pest or weed control at 70 g/ha [2, 11]: 0 to 29%; pest or weed control at 140 g/ha [2, 11]: 0 to 29%; pest or weed control at 35 g/ha [2, 12]: 0 to 29%; pest or weed control at 70 g/ha [2, 12]: 0 to 29%; pest or weed control at 140 g/ha [2, 12]: 0 to 29%; pest or weed control at 35 g/ha [2, 13]: 0 to 29%; pest or weed control at 70 g/ha [2, 13]: 0 to 29%; pest or weed control at 140 g/ha [2, 13]: 0 to 29%; pest or weed control at 35 g/ha [2, 14]: 0 to 29%; pest or weed control at 70 g/ha [2, 14]: 0 to 29%; pest or weed control at 140 g/ha [2, 14]: 0 to 29%
